Some test systems named below: NCI-H460 lung; SNB-75 CNS; 786-0 renal; SW-620 colon; MDA-MB-231 breast; EKVX NSCLC; K-562 leukemia; OVCAR-5 ovarian; OVCAR-8 ovarian; COLO 205 colon.
What all share (assay): NCI-60 cell line screen, 48 h

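Results reflect a 48-hour exposure of cells in 96-well plates to compound at five concentrations. At the GI50, growth is halved. TGI: concentration producing complete growth inhibition.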 Where only a bound is given, the exact number is not on record here.

Regarding `CC[C@@H](C(=O)[C@H](C)[C@H](O)[C@@H](C)[C@H]1O[C@H]([C@@H](CC)C(=O)N(CC)CC)CC[C@H]1C)C1O[C@]2(C=C[C@@H](O)[C@]3(CC[C@@](C)([C@H]4CC[C@](O)(CC)[C@H](C)O4)O3)O2)[C@H](C)C[C@@H]1C` (some centres undefined), the GI50 was 2.61 µM in the experiment with NCI-H460 lung; 1.72 µM in the experiment with SNB-75 CNS; 3.55 µM with 786-0 renal; 3.22 µM with SW-620 colon; 1.86 µM in the experiment with MDA-MB-231 breast; 2.58 µM in the experiment on EKVX NSCLC. Further, the GI50 in the experiment with K-562 leukemia was 3.12 µM; in the experiment with OVCAR-5 ovarian, 2.85 µM; with OVCAR-8 ovarian, 3.42 µM; with COLO 205 colon it was 2.5 µM. Also, the TGI in the experiment on NCI-H460 lung is 7.3 µM; with SNB-75 CNS, 11.1 µM; with 786-0 renal, 17.5 µM; in the experiment on SW-620 colon, 13.3 µM; with MDA-MB-231 breast, 4.29 µM; in the experiment with EKVX NSCLC, 11.4 µM. For the same compound, the TGI in the experiment on K-562 leukemia came to 19.4 µM; in the experiment on OVCAR-5 ovarian it was 11.1 µM; in the experiment on OVCAR-8 ovarian, 21.1 µM; with COLO 205 colon, 5.82 µM.
For `CCN1C(=O)N(CC)C2C1NN=c1s/c(=C\c3ccco3)c(=O)n12` (centres undefined), the GI50 with NCI-H460 lung was 0.403 µM; with SNB-75 CNS, 0.239 µM; in the experiment with 786-0 renal it was 0.571 µM; in the experiment with SW-620 colon, 0.439 µM; in the experiment on MDA-MB-231 breast it was 0.961 µM; in the experiment with EKVX NSCLC, 1.7 µM. In addition, the GI50 was 0.311 µM with K-562 leukemia, 1.31 µM in the experiment with OVCAR-5 ovarian, 1.43 µM in the experiment on OVCAR-8 ovarian and 0.403 µM in the experiment on COLO 205 colon. Besides, the TGI was > 100 µM with NCI-H460 lung; > 100 µM in the experiment on 786-0 renal; > 100 µM with SW-620 colon; 41.2 µM with MDA-MB-231 breast; > 100 µM in the experiment on EKVX NSCLC; > 100 µM with K-562 leukemia. In addition, the TGI in the experiment with OVCAR-5 ovarian was > 100 µM; in the experiment with OVCAR-8 ovarian it was > 100 µM; in the experiment with COLO 205 colon, > 23.6 µM.
For the compound `COc1cc2ncnc(Nc3cccc(Cl)c3F)c2cc1OC(=O)N1CCN(C)C[C@H]1C`, the GI50 with NCI-H460 lung was > 48.8 µM; with SNB-75 CNS it was 10.8 µM; in the experiment on 786-0 renal, > 34.2 µM; with SW-620 colon, > 44.9 µM; in the experiment on MDA-MB-231 breast it was 25.3 µM; in the experiment on EKVX NSCLC it was 0.253 µM. For the same compound, the GI50 in the experiment on K-562 leukemia is > 30.7 µM; with OVCAR-5 ovarian it was > 32.7 µM; with OVCAR-8 ovarian, > 40.9 µM; in the experiment with COLO 205 colon, > 38.1 µM. The TGI was > 82.4 µM in the experiment on NCI-H460 lung; > 50.1 µM with SNB-75 CNS; > 53.3 µM with 786-0 renal; > 69.7 µM in the experiment on SW-620 colon; > 59.5 µM in the experiment with MDA-MB-231 breast; > 61.2 µM with EKVX NSCLC. Further, the TGI is > 63.9 µM with K-562 leukemia, > 90.8 µM in the experiment with OVCAR-5 ovarian, > 77.9 µM in the experiment on OVCAR-8 ovarian and > 58.1 µM with COLO 205 colon.
For `c1ccc2cc(NCNc3ccc4ccccc4c3)ccc2c1`, the TGI in the experiment on NCI-H460 lung is 28.9 µM; in the experiment on SNB-75 CNS, 30.9 µM; in the experiment on 786-0 renal it was 40.8 µM; in the experiment on SW-620 colon it was > 100 µM; in the experiment with MDA-MB-231 breast, 38.9 µM; with EKVX NSCLC it was 65.5 µM. The TGI was determined as 38.8 µM in the experiment with K-562 leukemia, 51.5 µM in the experiment with OVCAR-5 ovarian, 58.2 µM with OVCAR-8 ovarian and 34.3 µM in the experiment with COLO 205 colon.
Take `N/C(=N/N=C/c1ccccc1)N/N=C\c1ccccc1`: the GI50 in the experiment with NCI-H460 lung was 3.89 µM; in the experiment with SNB-75 CNS, 9.67 µM; in the experiment with 786-0 renal, 5.2 µM; in the experiment on SW-620 colon, 3.86 µM; with MDA-MB-231 breast it was 10.5 µM; in the experiment with EKVX NSCLC, 7.59 µM. The GI50 in the experiment on K-562 leukemia was 3.35 µM; with OVCAR-5 ovarian, 19.4 µM; with OVCAR-8 ovarian, 6.69 µM; in the experiment on COLO 205 colon it was 3.66 µM. Besides, the TGI was > 100 µM in the experiment with NCI-H460 lung; > 100 µM with SNB-75 CNS; 43.9 µM with 786-0 renal; > 100 µM in the experiment with SW-620 colon; > 100 µM in the experiment on MDA-MB-231 breast; > 100 µM with EKVX NSCLC. Also, the TGI was > 100 µM in the experiment with K-562 leukemia, > 100 µM in the experiment with OVCAR-5 ovarian, > 100 µM in the experiment with OVCAR-8 ovarian and 14.7 µM in the experiment on COLO 205 colon.
Turning to `N=N/C(=C\c1c(O)[nH]c2ccccc12)c1ccccc1`, the TGI in the experiment with NCI-H460 lung is > 100 µM; with SNB-75 CNS, 63.8 µM; in the experiment on 786-0 renal it was > 77 µM; with SW-620 colon, > 100 µM; with MDA-MB-231 breast, > 76.5 µM; in the experiment on EKVX NSCLC, > 92 µM. For the same compound, the TGI with K-562 leukemia is > 100 µM; in the experiment with OVCAR-5 ovarian it was > 100 µM; in the experiment on OVCAR-8 ovarian it was > 57.5 µM; with COLO 205 colon it was 54.6 µM.

For the origin of these results see PubChem BioAssay (NCI).
